Measured values from patent publication US7049328B2, “Use for deferiprone” (priority 2000, dated 2006).

Legend:
[1] = system: iron-loaded rat neonatal myocytes; conditions: cited from earlier work; for Cardio-protective effects against iron-induced damage in neonatal rat myocytes: 100 μM; for Protecting the myocytes against iron-induced damage: at the concentrations used; for Removing iron from iron-loaded rat neonatal myocytes: in vitro
[2] = system: subjects with thalassemia major; assay: Retrospective study of cardiac disease (NYHA class, echocardiogram) and survival under chelation therapy; type: in vivo, human; conditions: for Percentage of patients with improvement of cardiac disease diagnosed at first assessment: NYHA classification; for Percentage of patients with worsening of the cardiac disease: overall, patients with at least 2 cardiac assessments; for Newly diagnosed cardiac disease: patients cardiac disease-free at first assessment with a second cardiac assessment; for Deaths during the study period: patients treated for 4 or more years; for Normalization of the Ejection Fraction (EF) during chelation therapy: patients with abnormal EF at first assessment (2 deferiprone, 1 desferrioxamine); for Improvement of the Systolic Function (SF): patients with abnormal SF at first echocardiographic assessment; for Percentage of patients with improvement of cardiac disease diagnosed at first assessment / Worsening of the cardiac disease in patients with previously diagnosed cardiac disease: patients with cardiac disease at first assessment
Description: The study was a single centre, retrospective analysis of medical records of the occurrence of cardiac disease and of the survival of all subjects with thalassemia major treated with deferiprone or with desferrioxamine at the Centro Microcitemie of the University of Turin since Jan. 1, 1995. The medical records were evaluated of all patients ≧5 year-old at the time of the start of the review period and who had the diagnosis of thalassemia major confirmed by laboratory tests (electrophoresis and/or DNA analysis) and clinical criteria (participant's hemoglobin and transfusion dependency).
In addition to the clinical evaluation and laboratory testing, patients underwent periodic cardiac examination and assessment by a cardiologist, which in addition to the physical examination included echocardiogram and 24-hour electrocardiographic Holter monitoring if indicated. Cardiac disease was classified, according to the criteria defined by the New York Heart Association ^17, by a cardiologist experienced in heart problems in subjects with hemoglobinopathies and who was unaware of the chelation therapy of the patients. Worsening of the Systolic Function (SF) or the Ejection Fraction (EF) was defined as an abnormal result at the last assessment in patients with a normal result at the first assessment for the study. Improvement was defined as a normal result at the last assessment for patients with an abnormal result at the first assessment. The first cardiac assessment was considered as the baseline value for each patient. For patients with more than one echocardiograph assessment within a year of the study, the change was based on the mean of the results of that year.
Starting in 1995, a substantial proportion of subjects followed up at the center were treated with deferiprone, in clinical trials or for compassionate therapy. For these patients, deferiprone was given in a dose of 25 mg/kg of body weight, three times per day. The remaining patients had maintained therapy with desferrioxamine (20 to 60 mg/kg/day), given as a subcutaneous infusion for 8 to 12 hour, 4 to 7 days a week except for one patient. Although 2 patients in the desferrioxamine group had their chelation intensified with intravenous chelation during the period of this review, they were not excluded from the analysis.
The Kaplan-Meier analysis of heart disease free survival for patients who were disease-free (NYHA class not applicable=0) at the beginning of the review period was performed by using the procedure LIFETEST from SAS (SAS Institute, Cary, N.C.). The primary comparison of the two groups was based on the log rank test. […] In addition to the Kaplan-Meier analysis, the incidence of patients with a worsening of their NYHA class from the first to the last cardiac assessment was determined for, each treatment group. Chi-square test was performed to compare the incidence between the two groups.

cardiac iron = conditions: cited from earlier work; for Change in T2 relaxation time in a randomized trial: mean treatment period of 22 months
mouse model = mouse model of Gale et al; cited from earlier work
[3] = system: iron overload in patients with thalassemia major; assay: Iron overload assessment in the retrospective study (serum ferritin, hepatic iron by SQUID, urinary iron excretion); type: in vivo, human; conditions: for Mean ± SD overall urinary iron excretion: during the study period
Description: All patients were subjected to the same transfusion regimen aimed at maintaining the pretransfusion hemoglobin levels at 9.5–10.0 g/dL and the mean hemoglobin at 12.0 g/dL. At each episode of red blood cell transfusion, each patient was interviewed and underwent clinical evaluation by a staff physician. The iron overload was determined by monthly assessment of the transfusional-iron input and by quarterly assessment of serum ferritin.
To evaluate the differences related to chelation therapy between the two groups of subjects, after the start of the study, 2 sample t-tests or Chi-square tests were performed to compare their transfusional iron input, serum ferritin, percentage of subjects with more than 50% of their serum ferritin data greater than 2500 μg/L during the study, compliance with chelation therapy, liver iron concentration and urinary iron excretion.

[4] = system: subjects with thalassemia; assay: Prospective clinical study of the Assignee in 187 subjects with thalassemia, heart failure; type: in vivo, human; conditions: treated for up to 5 years
Excerpt: The Assignee completed other studies wherein the largest prospective clinical study ever conducted for an iron chelator was made. One hundred eighty-seven subjects with thalassemia were enrolled in this trial conducted by Drs. A. Cohen, R. Galanello, A. Piga, and V. De […] in 3 centres in Italy and 1 center in the USA.

[5] = system: subjects with thalassemia major; conditions: one patient participating in the study (ref. 31); cited from earlier work
[6] = Serum / blood concentrations at standard doses; type: in vivo, human; conditions: current / standard formulation
Description: Although a serum concentration of 100 μM for deferiprone can occur with the administration of a single 25 mg/kg dose^22, the serum concentration of desferrioxamine in patients receiving 40 mg/kg/day is usually less than 10 μM.^23. Since the desferrioxamine concentrations used in the myocyte study were more than 10fold the expected serum concentrations, the in vivo cardioprotective effect of this chelator would be expected to be less than that of deferiprone, but not four times less protective placing the patient at a 4-fold greater likelihood of developing a worsening of their cardiac status with desferrioxamine.
Another factor may be related to the different pharmacokinetic characteristics of deferiprone and desferrioxamine when these drugs are given at standard doses, as in the present study. For example, deferiprone at 25 mg/kg, produces peak concentrations of approximately 100 μM with serum concentrations declining to about 10 μM in 6 hours, and this pattern is repeated three times daily, seven days a week. On the other hand, desferrioxamine at 40 mg/kg achieves concentrations of only 5–10 μM and only for the duration of the infusion (8–12 hours/day, 5–7 days per week). The long periods of time without the presence of an iron chelator may have a profound effect on the generation of iron-induced activity within myocytes and through non-transferrin bound iron. […]

[7] = cited from earlier work
patients = conditions: large safety study; cited from earlier work

| SMILES | Cardio-protective effects against iron-induced damage in neonatal rat myocytes [1] | Protecting the myocytes against iron-induced damage [1] | Removing iron from iron-loaded rat neonatal myocytes [1] | Percentage of patients with improvement of cardiac disease diagnosed at first assessment [2] | Worsening of the SF at the last assessment ([2]; number of patients) [patients] | Percentage of patients with worsening of the cardiac disease [2] | Newly diagnosed cardiac disease [2] [%] | Deaths during the study period [2] | Normalization of the Ejection Fraction (EF) during chelation therapy [2] | Improvement of the Systolic Function (SF) [2] | Worsening of the cardiac disease in patients with previously diagnosed cardiac disease [2] | Change in T2 relaxation time in a randomized trial (cardiac iron) | Reduction of iron concentrations from the heart (mouse model) | Mean ± SD hepatic iron concentration - SQUID during the last year of the review period [3] [mg FE/g liver wet weight] | Percentage (%) of patients with more than 50% of their serum ferritin results > 2,500 μg/L during the review period [3] [%] | Mean ± SD overall urinary iron excretion [3] [mg Fe/day] | Mean serum ferritin ± SD at year 4 of the review period [3] [µg/L] | further results |
| --- | --- | --- | --- | --- | --- | --- | --- | --- | --- | --- | --- | --- | --- | --- | --- | --- | --- | --- |
| CC(=O)N(O)CCCCCNC(=O)CCC(=O)N(O)CCCCCNC(=O)CCC(=O)N(O)CCCCCN [Desferrioxamine] | equal cardio-protective effects | equally effective | effective | 27 (3/11) % | 6 | 17 (10/59) % | 19 | No patient | All three patients presented a normalization of the EF | 5 of the 8 | one of the 11 | no change | none of the compounds studied, being desferrioxamine and deferiprone among others, reduced iron concentrations from the heart | 1.8 ± 1.0 | 21 | 15.5 ± 12.9 | 2050 ± 1319 | Iron removed, comparison of the two chelators ([1]; equimolar concentrations): removed more iron than deferiprone; Percentage of patients with improvement of cardiac disease diagnosed at first assessment ([2]; listed as desferrioxamine): 27%; Likelihood to develop a worsening of cardiac status versus deferiprone-treated patients ([2]; desferrioxamine versus deferiprone, same period): 4 fold; Worsening of the EF ([2]; number of patients): 3 patients; Percentage of patients with worsening of the cardiac disease ([2]; listed as desferrioxamine): 17% |
| Cc1c(O)c(=O)ccn1C [Deferiprone, 1,2-dimethyl-3-hydroxypyrid-4one] | equal cardio-protective effects | equally effective | effective | 40 (2/5) % | 2 | 4 (2/45) % | 5 | No patient | All three patients presented a normalization of the EF | 2 of the 4 | none of the 5 | significant improvement | none of the compounds studied, being desferrioxamine and deferiprone among others, reduced iron concentrations from the heart | 2.5 ± 1.2 | 33 | 18.1 ± 13.2 | 2402 ± 1331 | Percentage of patients with improvement of cardiac disease diagnosed at first assessment ([2]; listed as deferiprone): 40%; Percentage of patients with worsening of the cardiac disease ([2]; listed as deferiprone): 4%; T2 relaxation time, after treatment (cardiac iron; 23 patients treated for over one year, normal 32 msec): 30.5 ± 6.7 ms; T2 relaxation time, before (cardiac iron; 23 patients, start value, normal 32 msec): 26.6 ± 8.4 ms; Occurrence of heart failure [4]: no heart failure occurred; Reversal of iron-induced congestive heart failure [5]: successful reversal; Time after which blood levels fall to very low levels [6]: about 4 hours; Serum concentrations declining to ([7]; 25 mg/kg, in 6 hours): about 10 μM; Peak concentrations ([7]; 25 mg/kg): approximately 100 μM; Serum concentration ([7]; single 25 mg/kg dose): 100 µM; Development of agranulocytosis (patients): about 1% |
